Data as given in patent publication US7064139B2, “Method for treating retroviral infections” (Uniroyal Chemical Company, Inc., priority 2001, dated 2006).
Converted amounts (≈) assume the structure as drawn. Read-outs that look alike come from different tables or passages of the source.

Key:
[1] = system: HIV-2 (ROD); assay: Inhibition of HIV-2 syncytium formation in CEM cells; type: cell-based; conditions: for HIV-2 % Protection: protection of CEM cells against virus-induced cytopathicity at the concentration in the previous column; for EC50: Human immunodeficiency virus 2, CCRF-CEM, read-out: EC50 (ug/ml) HIV-2
Description: (§1) The cell type used to determine activity of the compounds of the invention herein, i.e., the test compounds, against HIV was human T-lymphoblast (CEM) cells obtained from the American Tissue Cell Culture Collection (Rockville, Md.). HIV-1 (IIIB) was originally obtained from the culture of persistently HIV-1 infected H9 cells and was provided by R. C. Gallo and M. Popovic (National Cancer Institute, National Institutes of Health, Bethesda, Md.). HIV-2 (ROD) was originally obtained from L. M. Montagnier (Pasteur Institute, Paris, France).
(§2) To determine the antiviral activity of the test compounds, CEM cells were suspended at a cell density of approximately 300,000 cells per ml of culture medium and infected with approximately 100 CCID50 (100 CCID50 being the 50% cell culture infective dose) of HIV-1 (IIIB) or HIV-2 (ROD)). Then 100 μl of the infected cell suspensions was added to 200 μl micro titer plate wells containing 100 μl of appropriate serial (5-fold) dilutions of the test compounds. The inhibitory effect of the test compounds on HIV-1 or HIV-2 syncytium formation in CEM cells was examined microscopically on day four post infection.
(§3) In these cases, the percent protection of the cells against virus-induced cytopathicity by the test compounds at the indicated compound concentration in the previous column is given.

[2] = system: Davis strain CMV; assay: Reduction of CMV-induced cytopathicity in HEL cells; type: cell-based, human cytomegalovirus (HCMV); conditions: for Antiviral % Inhibition Davis strain CMV: estimate of percent protection at the concentration in the previous column; for EC50: read-out: Antiviral EC50 (ug/ml) Davis strain CMV
Procedure: Confluent HEL cells grown in […] microtiter plates were inoculated with CMV at an input of 100 PFU (plaque forming units) per well. After a one to two hour incubation period, residual virus was removed and the infected cells were further incubated with MEM (Minimal Essential Medium) (supplemented with 2% inactivated Fetal Calf Serum (FCS), […], and 0.3% sodium bicarbonate) containing varying concentrations of the test compounds. Antiviral activity was expressed as EC50 (50% effective concentration), or test compound concentration required to reduce virus-induced cytopathicity after seven days by 50% compared to the untreated control.
In some cases, the compounds had considerable cytotoxicity against HEL cells, which made determination of the EC50 difficult. In these cases, an estimate of the percent protection at the compound concentration indicated in the previous columns is given.

[3] = system: HIV-1 (IIIB); assay: microbe, parasite or virus in culture; type: cell-based; conditions: for HIV-1 % Protection: protection of CEM cells against virus-induced cytopathicity at the concentration in the previous column; for EC50: Human immunodeficiency virus 1, IIIB, CCRF-CEM, read-out: EC50 (ug/ml) HIV-1
Description: as §1, §2, §3

[4] = CEM cells, syncytium formation, day four post infection
[5] = HEL cells, virus-induced cytopathicity after seven days
[6] = Human betaherpesvirus 5, 168 h, HEL cells, virus-induced cytopathicity after seven days

Row | Compound | EC50 (ug/ml) HIV-2 [1, 4] | Antiviral EC50 (ug/ml) Davis strain CMV [2, 5] | EC50 (ug/ml) HIV-1 [3, 4] | EC50 [1, 4] | EC50 [2, 6] | EC50 [3, 4] | HIV-2 % Protection [1] | Antiviral % Inhibition Davis strain CMV ([2]; HEL cells) | HIV-1 % Protection [3] | EC50 [1] | EC50 ([2]; Human betaherpesvirus 5, HEL, 168 h) | EC50 [3]
1 | O=S(=O)(Cc1ccc(CS(=O)(=O)c2cccc[n+]2[O-])cc1)c1cccc[n+]1[O-] [Compound 23] | ≧20 ug/ml | >20 µg/mL | ≧20 ug/ml |  |  |  | 37.5% | 20.0% | 37.5% |  |  | 
2 | Cc1ccc(C)c(CS(=O)(=O)c2ccccn2)c1 [Compound 150] | 20.0 µg/mL (≈ 76.5 µM) | >50 µg/mL | 3.25 µg/mL (≈ 12.4 µM) |  |  |  |  | 20.0% |  |  |  | 
3 | O=[N+]([O-])c1cc(CS(=O)(=O)c2cccc[n+]2[O-])ccc1Cl [Compound 64, 2-[[(4-chloro-3-nitrophenyl)methyl]sulfonyl]-pyridine-1-oxide] |  |  |  | 1.9 µg/mL (≈ 5.78 µM) | > 5 µg/mL | 1.5 µg/mL (≈ 4.56 µM) |  | 10.0% |  |  |  | 
4 | Cc1cc(CS(=O)(=O)c2cccc[n+]2[O-])c(C)cc1CS(=O)(=O)c1cccc[n+]1[O-] [Compound 25] | ≧20 ug/ml | 16.0 µg/mL | 10.00 µg/mL (≈ 22.3 µM) |  |  |  | 37.5% |  |  |  |  | 
5 | COc1ccc(C=C(C#N)Sc2cccc[n+]2[O-])cc1 [Compound 159] | >20 µg/mL | 10.0 µg/mL | >20 µg/mL |  |  |  | 25.0% |  | 0.0% |  |  | 
6 | COc1cc(C=C(C#N)Sc2cccc[n+]2[O-])cc(OC)c1OC [Compound 160] | >20 µg/mL | 7.0 µg/mL | >20 µg/mL |  |  |  | 0.0% |  | 0.0% |  |  | 
7 | [O-][n+]1ccccc1SCc1ccccc1 [Compound 4] | >100 µg/mL | >50 µg/mL | ≧100 ug/ml |  |  |  | 0.0% | 0.0% | 37.5% |  |  | 
8 | Cc1ccc(C)c(C[S+]([O-])c2cccc[n+]2[O-])c1C (stereo not shown) [Compound 97, 2-(2,3,6-Trimethylphenylmethylsulfinyl)pyridine N-oxide] |  |  |  | > 0.8 µg/mL | 11 µg/mL (≈ 39.9 µM) | > 0.8 µg/mL | 0.0% |  | 0.0% |  |  | 
9 | O=[N+]([O-])c1cc(CS(=O)(=O)c2cccc[n+]2[O-])cc([N+](=O)[O-])c1 [Compound 65] | 3.5 µg/mL (≈ 10.3 µM) | 5.0 µg/mL | 2.80 µg/mL (≈ 8.25 µM) |  |  |  |  |  |  |  |  | 
10 | O=S(=O)(c1ccc(Cl)c[n+]1[O-])C(Cl)c1ccccc1 (stereo not shown) [Compound 114, 2-(Phenylchloromethylsulfonyl)-5-chloropyridine N-oxide] |  |  |  | > 0.8 µg/mL | > 20 µg/mL | > 0.8 µg/mL | 0.0% | 20.0% | 0.0% |  |  | 
11 | Cc1ccc(CS(=O)(=O)c2c(C)ccc[n+]2[O-])c(C)c1 [Compound 83] | ≧20 ug/ml | 12.0 µg/mL | 6.00 µg/mL (≈ 20.6 µM) |  |  |  | 37.5% |  |  |  |  | 
12 | Cc1ccc(C)c(CSc2c(Cl)ccc[n+]2[O-])c1 [Compound 133, 3-Chloro-2-[[(2,5-dimethylphenyl)methyl]thio]pyridine 1-oxide] |  |  |  |  |  |  | 0.0% |  |  | > 20 µg/mL | 25 µg/mL (≈ 89.4 µM) | 0.14 µg/mL (≈ 0.5 µM)
13 | Cc1ccc[n+]([O-])c1[S+]([O-])Cc1c(Cl)cccc1Cl (stereo not shown) [Compound 138] | >100.0 µg/mL | >50 µg/mL | >100 µg/mL |  |  |  | 0.0% | 20.0% | 0.0% |  |  | 
14 | CCc1cccc2c(C)cc(S(=O)(=O)C(C)c3ccccc3)nc12 (stereo not shown) [Compound 107, 8-ethyl-4-methyl-2-[(1-phenylethyl)sulfonyl]-quinoline] |  |  |  | > 100 µg/mL | > 20 µg/mL | 0.65 µg/mL (≈ 1.91 µM) |  | 0.0% |  |  |  | 
15 | COc1ccc(CS(=O)(=O)c2cc(C(C)(C)C)cc[n+]2[O-])cc1 [Compound 135] | >20.00 µg/mL | 12.5 µg/mL | >20 µg/mL |  |  |  | 0.0% |  | 0.0% |  |  | 
16 | CC(C)c1cc(CS(=O)(=O)c2cccc[n+]2[O-])c(C(C)C)cc1Br [Compound 63] | 2.5 µg/mL (≈ 6.06 µM) | 3.7 µg/mL | 2.30 µg/mL (≈ 5.58 µM) |  |  |  |  |  |  |  |  | 
17 | Cc1ccc(N)cc1C(C)S(=O)(=O)c1cccc[n+]1[O-] (stereo not shown) [Compound 1] | 41.0 µg/mL (≈ 140 µM) | >50 µg/mL | 20.00 µg/mL (≈ 68.4 µM) |  |  |  |  | 0.0% |  |  |  | 
18 | Cc1ccc(C)c(C(C)[S+]([O-])c2cccc[n+]2[O-])c1 (stereo not shown) [Compound 103] | >0.8 µg/mL | 4.3 µg/mL | >.8 µg/mL |  |  |  | 0.0% |  | 0.0% |  |  | 

More lines, main results first:

Row | EC50 (ug/ml) HIV-2 [1, 4] | Antiviral EC50 (ug/ml) Davis strain CMV [2, 5] | EC50 (ug/ml) HIV-1 [3, 4] | EC50 [1, 4] | EC50 [2, 6] | EC50 [3, 4] | Compound | HIV-2 % Protection [1] | Antiviral % Inhibition Davis strain CMV ([2]; HEL cells) | HIV-1 % Protection [3] | EC50 [1] | EC50 ([2]; Human betaherpesvirus 5, HEL, 168 h) | EC50 [3]
19 | ≧4 ug/ml | 5.0 µg/mL | 2.50 µg/mL (≈ 7.62 µM) |  |  |  | O=S(=O)(Cc1cccc(Br)c1)c1cccc[n+]1[O-] [Compound 38] | 37.5% |  |  |  |  | 
20 | 3.4 µg/mL (≈ 9.06 µM) | >20 µg/mL | 5.30 µg/mL (≈ 14.1 µM) |  |  |  | O=S(=O)(Cc1ccccc1I)c1cccc[n+]1[O-] [Compound 44] |  | 20.0% |  |  |  | 
21 | 9.5 µg/mL (≈ 34.6 µM) | >5 µg/mL | 7.00 µg/mL (≈ 25.5 µM) |  |  |  | N#Cc1ccccc1CS(=O)(=O)c1cccc[n+]1[O-] [Compound 24] |  | 30.0% |  |  |  | 
22 | 2.5 µg/mL (≈ 7.86 µM) | 5.0 µg/mL | 2.40 µg/mL (≈ 7.54 µM) |  |  |  | O=S(=O)(Cc1ccc(Cl)cc1Cl)c1cccc[n+]1[O-] [Compound 18] |  |  |  |  |  | 
23 | 3.4 µg/mL (≈ 10.6 µM) | 1.5 µg/mL | 3.10 µg/mL (≈ 9.7 µM) |  |  |  | CCC(C)(C)c1ccc(CS(=O)(=O)c2cccc[n+]2[O-])cc1 [Compound 40, 2-(((4-(1,1-dimethyl)propyl)phenyl)methylsulfonyl)pyridine-N-oxide] |  |  |  |  |  | 
24 | 16.0 µg/mL (≈ 54.5 µM) | >20 µg/mL | 9.50 µg/mL (≈ 32.4 µM) |  |  |  | CCOc1ccccc1CS(=O)(=O)c1cccc[n+]1[O-] [Compound 48] |  | 20.0% |  |  |  | 
25 | 2.5 µg/mL (≈ 8.11 µM) | 5.0 µg/mL | 3.10 µg/mL (≈ 10.1 µM) |  |  |  | Cc1cc(CS(=O)(=O)c2cccc[n+]2[O-])ccc1[N+](=O)[O-] [Compound 66] |  |  |  |  |  | 
26 | 5.0 µg/mL (≈ 18 µM) | 10.0 µg/mL | 5.50 µg/mL (≈ 19.8 µM) |  |  |  | CCc1ccc(CS(=O)(=O)c2cccc[n+]2[O-])cc1 [Compound 59] |  |  |  |  |  | 
27 | 6.0 µg/mL (≈ 20 µM) | >5 µg/mL | 6.50 µg/mL (≈ 21.7 µM) |  |  |  | O=S(=O)(Cc1cccc2ccccc12)c1cccc[n+]1[O-] [Compound 13] |  | 20.0% |  |  |  | 
